This passage reports T/C, IC50 and Body weight results from ChEMBL document CHEMBL1134665, “Synthesis and antitumor activity of ester-modified analogues of bengamide B” (J Med Chem, 2001).

pIC50: −log10 of the molar value.

In the first assay the test system is MDA-MB-435. In words: In vivo percent T/C against MDA-MB-435 human breast carcinoma cells implanted sc in mice at a dose 10 umol/kg. Format: functional.
As usually defined, the T/C is the result in the treated group divided by that in the control group, in per cent. Take `CO[C@@H](C(=O)NC1CC[C@@H](OC(=O)C2CCCC2)CNC1=O)[C@H](O)[C@@H](O)[C@H](O)/C=C/C(C)(C)C` (some centres undefined): the T/C is 67%.
For `CO[C@@H](C(=O)NC1CC[C@@H](OC(=O)Cc2ccccc2)CNC1=O)[C@H](O)[C@@H](O)[C@H](O)/C=C/C(C)(C)C` (some centres undefined), the T/C stood at 72%.
In the case of `CO[C@@H](C(=O)NC1CC[C@@H](OC(=O)CCc2ccccc2)CNC1=O)[C@H](O)[C@@H](O)[C@H](O)/C=C/C(C)(C)C` (some centres undefined), the T/C is on record as below 53%.
As to `CCCCCCCCCCOc1ccc(C(=O)O[C@@H]2CCC(NC(=O)[C@H](OC)[C@H](O)[C@@H](O)[C@H](O)/C=C/C(C)(C)C)C(=O)NC2)cc1` (some centres undefined), the T/C was below 64%.
As to `CCCCCc1ccc(C(=O)O[C@@H]2CCC(NC(=O)[C@H](OC)[C@H](O)[C@@H](O)[C@H](O)/C=C/C(C)(C)C)C(=O)NC2)cc1` (some centres undefined), the T/C is 111%.

The next assay deals with MDA-MB-435. The experiment in a line: In vivo percent T/C against MDA-MB-435 human breast carcinoma cells implanted sc in mice at a dose 26 umol/kg. Format: functional.
In turn, `CO[C@@H](C(=O)NC1CC[C@H](O)CN(C)C1=O)[C@H](O)[C@@H](O)[C@H](O)/C=C/C(C)C` (some centres undefined) had a T/C of 42%.

The subject of the next assay is MDA-MB-435. In words: In vivo percent T/C against MDA-MB-435 human breast carcinoma cells implanted sc in mice at a dose 279 umol/Kg. Format: functional.
`CO[C@@H](C(=O)NC1CCCCNC1=O)[C@H](O)[C@@H](O)[C@H](O)/C=C/C(C)C` (some centres undefined) gave a T/C below 19%.

A further assay deals with MDA-MB-435. In words: (§1) Antiproliferative activity against MDA-MB-435 human breast carcinoma cells in vitro using MDA-MB-435 monolayer growth assay. Format: functional, cell-based.
For orientation: pIC50 means the IC50 on a negative log10 scale, so that one unit is a factor of ten. High values mean a low IC50, low ones a high IC50. With `CCCCCCCCCCCCCOC(=O)[C@H]1CCC(NC(=O)[C@H](OC)[C@H](O)[C@@H](O)[C@H](O)/C=C/C(C)C)C(=O)NC1` (some centres undefined), the pIC50 is 9.00.
On the same count and under the same terms, the figure for `CO[C@@H](C(=O)NC1CC[C@H](O)CN(C)C1=O)[C@H](O)[C@@H](O)[C@H](O)/C=C/C(C)C` (some centres undefined) is 5.54; for `CO[C@@H](C(=O)NC1CCCCN(C)C1=O)[C@H](O)[C@@H](O)[C@H](O)/C=C/C(C)C` (some centres undefined) it is 5.54; for `CO[C@@H](C(=O)NC1CCCCNC1=O)[C@H](O)[C@@H](O)[C@H](O)/C=C/C(C)C` (some centres undefined) it is 5.48.

The test system of another assay is MDA-MB-435. The description is as §1. Type of assay: functional.
Consider `CO[C@@H](C(=O)NC1CC[C@@H](OC(=O)C2CCCC2)CNC1=O)[C@H](O)[C@@H](O)[C@H](O)/C=C/C(C)(C)C` (some centres undefined), for which the negative logarithm of the IC50 (pIC50) was 6.89.
With `CO[C@@H](C(=O)NC1CC[C@@H](OC(=O)Cc2ccccc2)CNC1=O)[C@H](O)[C@@H](O)[C@H](O)/C=C/C(C)(C)C` (some centres undefined), the negative logarithm of the IC50 (pIC50) is 6.59.
In turn, `COc1cccc2c1C(=O)c1c(O)c3c(c(O)c1C2=O)C[C@@](O)(C(=O)CO)C[C@@H]3O[C@H]1C[C@H](N)[C@H](O)[C@H](C)O1` [DOXORUBICIN] showed a pIC50 of 6.40.
Still for that read-out and setting: the figure for `CO[C@@H](C(=O)NC1CC[C@@H](OC(=O)CCc2ccccc2)CNC1=O)[C@H](O)[C@@H](O)[C@H](O)/C=C/C(C)(C)C` (some centres undefined) is 8.00; for `CCCCCCCCCCOc1ccc(C(=O)O[C@@H]2CCC(NC(=O)[C@H](OC)[C@H](O)[C@@H](O)[C@H](O)/C=C/C(C)(C)C)C(=O)NC2)cc1` (some centres undefined) it is 8.00.
Still for that read-out and setting: the figure for `CCCCCc1ccc(C(=O)O[C@@H]2CCC(NC(=O)[C@H](OC)[C@H](O)[C@@H](O)[C@H](O)/C=C/C(C)(C)C)C(=O)NC2)cc1` (some centres undefined) is 7.70.

In a further assay the test system is MDA-MB-435. The experiment in a line: In vivo percent T/C against MDA-MB-435 human breast carcinoma cells implanted sc in mice at a dose 33 umol/Kg. Type of assay: functional.
In turn, `CO[C@@H](C(=O)NC1CC[C@@H](OC(=O)C2CCCC2)CNC1=O)[C@H](O)[C@@H](O)[C@H](O)/C=C/C(C)(C)C` (some centres undefined) gave a T/C below 13%.
On the same count and under the same terms, the figure for `CO[C@@H](C(=O)NC1CC[C@@H](OC(=O)Cc2ccccc2)CNC1=O)[C@H](O)[C@@H](O)[C@H](O)/C=C/C(C)(C)C` (some centres undefined) is below 43%.
On the same count and under the same terms, the figure for `CO[C@@H](C(=O)NC1CC[C@@H](OC(=O)CCc2ccccc2)CNC1=O)[C@H](O)[C@@H](O)[C@H](O)/C=C/C(C)(C)C` (some centres undefined) is below 12%; for `CCCCCCCCCCOc1ccc(C(=O)O[C@@H]2CCC(NC(=O)[C@H](OC)[C@H](O)[C@@H](O)[C@H](O)/C=C/C(C)(C)C)C(=O)NC2)cc1` (some centres undefined) it is 2%; for `CCCCCc1ccc(C(=O)O[C@@H]2CCC(NC(=O)[C@H](OC)[C@H](O)[C@@H](O)[C@H](O)/C=C/C(C)(C)C)C(=O)NC2)cc1` (some centres undefined) it is 91%.

In another assay the test system is MDA-MB-435. The experiment in a line: In vivo percent T/C against MDA-MB-435 human breast carcinoma cells implanted sc in mice at a dose 52 umol/Kg. Type of assay: functional.
`CO[C@@H](C(=O)NC1CC[C@H](O)CN(C)C1=O)[C@H](O)[C@@H](O)[C@H](O)/C=C/C(C)C` (some centres undefined) gave a T/C of 41%.

The subject of the next assay is MDA-MB-435. In words: In vivo percent T/C against MDA-MB-435 human breast carcinoma cells implanted sc in mice at a dose 84 umol/Kg. Type of assay: functional.
As to `CO[C@@H](C(=O)NC1CCCCNC1=O)[C@H](O)[C@@H](O)[C@H](O)/C=C/C(C)C` (some centres undefined), the T/C is given as 62%.

The next assay relates to MDA-MB-435. In words: In vivo percent body weight versus MDA-MB-435 human breast carcinoma cells implanted sc in mice at a dose 10 umol/kg. Type of assay: functional.
As to `CO[C@@H](C(=O)NC1CC[C@@H](OC(=O)C2CCCC2)CNC1=O)[C@H](O)[C@@H](O)[C@H](O)/C=C/C(C)(C)C` (some centres undefined), the Body weight is 7.6%.
As for `CO[C@@H](C(=O)NC1CC[C@@H](OC(=O)Cc2ccccc2)CNC1=O)[C@H](O)[C@@H](O)[C@H](O)/C=C/C(C)(C)C` (some centres undefined), the Body weight is reported as 10.6%.
On the same count and under the same terms, the figure for `CO[C@@H](C(=O)NC1CC[C@@H](OC(=O)CCc2ccccc2)CNC1=O)[C@H](O)[C@@H](O)[C@H](O)/C=C/C(C)(C)C` (some centres undefined) is 6%; for `CCCCCCCCCCOc1ccc(C(=O)O[C@@H]2CCC(NC(=O)[C@H](OC)[C@H](O)[C@@H](O)[C@H](O)/C=C/C(C)(C)C)C(=O)NC2)cc1` (some centres undefined) it is 8.8%.
`CCCCCc1ccc(C(=O)O[C@@H]2CCC(NC(=O)[C@H](OC)[C@H](O)[C@@H](O)[C@H](O)/C=C/C(C)(C)C)C(=O)NC2)cc1` (some centres undefined): the Body weight is listed as 6%.

Another assay deals with MDA-MB-435. In words: In vivo for percent body weight against MDA-MB-435 human breast carcinoma cells implanted sc in mice at a dose 26 umol/kg. Format: functional.
Take `CO[C@@H](C(=O)NC1CC[C@H](O)CN(C)C1=O)[C@H](O)[C@@H](O)[C@H](O)/C=C/C(C)C` (some centres undefined): the Body weight was 9.5%.

The subject of the next assay is MDA-MB-435. In words: In vivo for percent body weight against MDA-MB-435 human breast carcinoma cells implanted sc in mice at a dose 279 umol/Kg. Format: functional.
In the case of `CO[C@@H](C(=O)NC1CCCCNC1=O)[C@H](O)[C@@H](O)[C@H](O)/C=C/C(C)C` (some centres undefined), the Body weight is on record as 6.7%.

A further assay has as its system MDA-MB-435. In words: In vivo for percent body weight against MDA-MB-435 human breast carcinoma cells implanted sc in mice at a dose 28 umol/kg. Format: functional.
`CO[C@@H](C(=O)NC1CCCCNC1=O)[C@H](O)[C@@H](O)[C@H](O)/C=C/C(C)C` (some centres undefined): the Body weight worked out at 8.4%.

The test system of the next assay is MDA-MB-435. In words: In vivo for percent body weight against MDA-MB-435 human breast carcinoma cells implanted sc in mice at a dose 2 umol/kg. Format: functional.
In the case of `COc1cccc2c1C(=O)c1c(O)c3c(c(O)c1C2=O)C[C@@](O)(C(=O)CO)C[C@@H]3O[C@H]1C[C@H](N)[C@H](O)[C@H](C)O1` [DOXORUBICIN], the Body weight amounted to 3.9%.

Another assay has as its system MDA-MB-435. The experiment in a line: In vivo percent body weight versus MDA-MB-435 human breast carcinoma cells implanted sc in mice at a dose 33 umol/Kg. Format: functional.
As for `CO[C@@H](C(=O)NC1CC[C@@H](OC(=O)C2CCCC2)CNC1=O)[C@H](O)[C@@H](O)[C@H](O)/C=C/C(C)(C)C` (some centres undefined), the Body weight is 3%.
The same measure, in the same setting: the figure for `CO[C@@H](C(=O)NC1CC[C@@H](OC(=O)Cc2ccccc2)CNC1=O)[C@H](O)[C@@H](O)[C@H](O)/C=C/C(C)(C)C` (some centres undefined) is 3.9%.
Same read-out and setting: the figure for `CO[C@@H](C(=O)NC1CC[C@@H](OC(=O)CCc2ccccc2)CNC1=O)[C@H](O)[C@@H](O)[C@H](O)/C=C/C(C)(C)C` (some centres undefined) is 5.3%.
The same measure, in the same setting: the figure for `CCCCCCCCCCOc1ccc(C(=O)O[C@@H]2CCC(NC(=O)[C@H](OC)[C@H](O)[C@@H](O)[C@H](O)/C=C/C(C)(C)C)C(=O)NC2)cc1` (some centres undefined) is -0.9%; for `CCCCCc1ccc(C(=O)O[C@@H]2CCC(NC(=O)[C@H](OC)[C@H](O)[C@@H](O)[C@H](O)/C=C/C(C)(C)C)C(=O)NC2)cc1` (some centres undefined) it is 2.6%.

Another assay deals with MDA-MB-435. In words: In vivo for percent body weight against MDA-MB-435 human breast carcinoma cells implanted sc in mice at a dose 52 umol/Kg. Type of assay: functional.
As for `CO[C@@H](C(=O)NC1CC[C@H](O)CN(C)C1=O)[C@H](O)[C@@H](O)[C@H](O)/C=C/C(C)C` (some centres undefined), the Body weight stood at 0.8%.

Another assay deals with MDA-MB-435. The experiment in a line: In vivo for percent body weight against MDA-MB-435 human breast carcinoma cells implanted sc in mice at a dose 84 umol/kg. Format: functional.
Regarding `CO[C@@H](C(=O)NC1CCCCNC1=O)[C@H](O)[C@@H](O)[C@H](O)/C=C/C(C)C` (some centres undefined), the Body weight is 7.1%.

The next assay deals with MDA-MB-435. The experiment in a line: In vivo for percent body weight against MDA-MB-435 human breast carcinoma cells implanted sc in mice at a dose m100 umol/Kg. Type of assay: functional.
On to `CO[C@@H](C(=O)NC1CC[C@@H](OC(=O)CCc2ccccc2)CNC1=O)[C@H](O)[C@@H](O)[C@H](O)/C=C/C(C)(C)C` (some centres undefined), for which the Body weight is reported as -3.1%.

The test system of another assay is MDA-MB-435. The experiment in a line: In vivo percent T/C against MDA-MB-435 human breast carcinoma cells implanted sc in mice at a dose 28 umol/kg. Type of assay: functional.
Take `CO[C@@H](C(=O)NC1CCCCNC1=O)[C@H](O)[C@@H](O)[C@H](O)/C=C/C(C)C` (some centres undefined): the T/C came to 62%.

A further assay concerns MDA-MB-435. The experiment in a line: In vivo percent T/C against MDA-MB-435 human breast carcinoma cells implanted sc in mice at a dose 2 umol/kg. Type of assay: functional.
Take `COc1cccc2c1C(=O)c1c(O)c3c(c(O)c1C2=O)C[C@@](O)(C(=O)CO)C[C@@H]3O[C@H]1C[C@H](N)[C@H](O)[C@H](C)O1` [DOXORUBICIN]: the T/C is below 44%.

The subject of another assay is MDA-MB-435. In words: In vivo percent T/C against MDA-MB-435 human breast carcinoma cells implanted sc in mice at a dose 100 umol/Kg. Type of assay: functional.
Take `CO[C@@H](C(=O)NC1CC[C@@H](OC(=O)CCc2ccccc2)CNC1=O)[C@H](O)[C@@H](O)[C@H](O)/C=C/C(C)(C)C` (some centres undefined): the T/C is reported as below 58%.
